Measurements published in the supplement of paper PMC10307832.

Experiments:
Assay in all cases: relative viability (nuclei count vs DMSO), 5 days (fraction); higher = more cells survive
Venetoclax + Palbociclib = compound: CC1(C)CCC(CN2CCN(c3ccc(C(=O)NS(=O)(=O)c4ccc(NCC5CCOCC5)c([N+](=O)[O-])c4)c(Oc4cnc5[nH]ccc5c4)c3)CC2)=C(c2ccc(Cl)cc2)C1 [Venetoclax] + CC(=O)c1c(C)c2cnc(Nc3ccc(N4CCNCC4)cn3)nc2n(C2CCCC2)c1=O [Palbociclib] (partner 0.5 µM)
Outline: (§1)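 Lung cancer cell lines, seeded in 1536-well plates, were treated the following day by pin tool with a single drug or with five library-drug doses (not always all listed) in √10 steps on top of a fixed anchor-drug dose. Cells were fixed and nuclei stained in one step after 5 days, and nuclei were counted. Relative viability is the nuclei count for treated wells divided by that for vehicle wells, reported as medians of duplicate plates.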

[1] = compound: Cn1cnc2c(F)c(Nc3ccc(Br)cc3Cl)c(C(=O)NOCCO)cc21 [Selumetinib] + CC(=O)c1c(C)c2cnc(Nc3ccc(N4CCNCC4)cn3)nc2n(C2CCCC2)c1=O [Palbociclib] (partner 0.5 µM)
Outline: as §1

Selumetinib + Pictilisib = compound: Cn1cnc2c(F)c(Nc3ccc(Br)cc3Cl)c(C(=O)NOCCO)cc21 [Selumetinib] + CS(=O)(=O)N1CCN(Cc2cc3nc(-c4cccc5[nH]ncc45)nc(N4CCOCC4)c3s2)CC1 [Pictilisib] (partner 1 µM)
Outline: as §1

Selumetinib + Olaparib = compound: Cn1cnc2c(F)c(Nc3ccc(Br)cc3Cl)c(C(=O)NOCCO)cc21 [Selumetinib] + O=C(c1cc(Cc2n[nH]c(=O)c3ccccc23)ccc1F)N1CCN(C(=O)C2CC2)CC1 [Olaparib] (partner 8 µM)
Outline: as §1

Cell Line	relative viability (Venetoclax + Palbociclib; first compound 0.01 µM)	relative viability (Venetoclax + Palbociclib; first compound 0.03162 µM)	relative viability (Venetoclax + Palbociclib; first compound 0.1 µM)	relative viability (Venetoclax + Palbociclib; first compound 0.3162 µM)	relative viability (Venetoclax + Palbociclib; first compound 1 µM)	relative viability ([1]; first compound 0.02 µM)	relative viability ([1]; first compound 0.06325 µM)	relative viability ([1]; first compound 0.2 µM)	relative viability ([1]; first compound 0.6325 µM)	relative viability (Selumetinib + Pictilisib; first compound 0.02 µM)	relative viability (Selumetinib + Pictilisib; first compound 0.06325 µM)	relative viability (Selumetinib + Pictilisib; first compound 0.2 µM)	relative viability (Selumetinib + Pictilisib; first compound 0.6325 µM)	relative viability (Selumetinib + Olaparib; first compound 0.02 µM)	relative viability (Selumetinib + Olaparib; first compound 0.06325 µM)	relative viability (Selumetinib + Olaparib; first compound 0.2 µM)	relative viability (Selumetinib + Olaparib; first compound 0.6325 µM)
201T	0.364	0.353	0.321	0.331	0.334	0.357	0.352	0.314	0.329	0.641	0.693	0.625	0.677	0.781	0.791	0.79	0.79
A549										0.441	0.377	0.256	0.238	0.284	0.295	0.325	0.265
A-427	0.469	0.595	0.498	0.507	0.516	0.503	0.496	0.51	0.538	0.752	0.583	0.493	0.421	0.724	0.771	0.802	0.845
ABC-1	0.802	0.796	0.564	0.618	0.797	0.642	0.672	0.555	0.5	0.64	0.605	0.393	0.607	0.885	0.726	0.737	0.768
BEN	0.519	0.469	0.49	0.489	0.498	0.466	0.53	0.462	0.509	0.632	0.545	0.461	0.534	1.13	1.08	1.14	0.988
CAL-12T	0.401	0.565	0.384	0.453	0.314	0.385	0.26	0.222	0.191	0.415	0.394	0.408	0.395	0.678	0.651	0.595	0.564
COR-L23	0.326	0.283	0.184	0.286	0.282	0.311	0.289	0.301	0.241	0.84	0.699	0.784	0.713	0.404	0.385	0.414	0.446
COR-L 105	0.414	0.399	0.384	0.365	0.413	0.449	0.404	0.383	0.392	0.342	0.312	0.338	0.347	0.73	0.727	0.687	0.582
Calu-6										0.931	0.644	0.467	0.335	0.62	0.489	0.421	0.362
ChaGo-K-1	0.992	0.986	0.867	0.905	0.899	0.94	0.966	0.895	0.848	0.619	0.838	0.55	0.824	0.43	0.414	0.398	0.39
EBC-1										0.259	0.172	0.182	0.173	0.717	0.66	0.599	0.443
EKVX	0.438	0.397	0.378	0.331	0.363	0.285	0.278	0.227	0.186	0.395	0.391	0.317	0.243	0.777	0.741	0.643	0.629
EMC-BAC-2	0.5	0.555	0.533	0.541	0.486	0.554	0.53	0.55	0.52	0.556	0.53	0.523	0.492	0.636	0.657	0.674	0.717
EPLC-272H	0.351	0.298	0.345	0.338	0.318	0.271	0.256	0.287	0.232	0.299	0.253	0.245	0.208	0.531	0.512	0.519	0.575
H3255	0.34	0.316	0.315	0.33	0.296	0.318	0.353	0.339	0.339	0.434	0.462	0.38	0.36	0.554	0.586	0.603	0.536
HARA	0.289	0.279		0.26	0.272	0.359	0.244	0.236	0.165	0.285	0.391	0.31	0.15	0.768	0.727	0.651	0.466
HCC-15	0.755	0.672	0.419	0.655	0.508	0.564	0.537	0.355	0.253	0.509	0.31	0.25	0.207	0.694	0.622	0.575	0.368
HCC-44	0.928	0.954	0.934	0.899	0.919	1	0.971	1.01	1.09	0.562	0.525	0.379	0.337	0.988	0.997	0.983	1.01
HCC-78	0.456	0.534	0.437	0.433	0.469	0.486	0.488	0.498	0.423	0.0694	0.181	0.134	0.216	0.904	0.738	0.723	0.789
HCC-366	0.391	0.359	0.314	0.37	0.326	0.3	0.31	0.256	0.143	0.136	0.0735	0.124	0.115	0.415	0.296	0.198	0.19
HCC-827	0.526	0.627	0.463	0.442	0.534	0.497	0.469	0.465	0.401	0.82	1.23	0.79	0.904	0.705	0.672	0.681	0.719
HOP-62	0.43	0.462	0.373	0.427	0.4	0.469	0.489	0.458	0.37	0.713	0.407	0.26	0.261	0.474	0.397	0.421	0.353

Cell Line	relative viability (Venetoclax + Palbociclib; first compound 0.01 µM)	relative viability (Venetoclax + Palbociclib; first compound 0.03162 µM)	relative viability (Venetoclax + Palbociclib; first compound 0.1 µM)	relative viability (Venetoclax + Palbociclib; first compound 0.3162 µM)	relative viability (Venetoclax + Palbociclib; first compound 1 µM)	relative viability ([1]; first compound 0.02 µM)	relative viability ([1]; first compound 0.06325 µM)	relative viability ([1]; first compound 0.2 µM)	relative viability ([1]; first compound 0.6325 µM)	relative viability (Selumetinib + Pictilisib; first compound 0.02 µM)	relative viability (Selumetinib + Pictilisib; first compound 0.06325 µM)	relative viability (Selumetinib + Pictilisib; first compound 0.2 µM)	relative viability (Selumetinib + Pictilisib; first compound 0.6325 µM)	relative viability (Selumetinib + Olaparib; first compound 0.02 µM)	relative viability (Selumetinib + Olaparib; first compound 0.06325 µM)	relative viability (Selumetinib + Olaparib; first compound 0.2 µM)	relative viability (Selumetinib + Olaparib; first compound 0.6325 µM)
IA-LM										0.144	0.143	0.119	0.0815	1.09	0.531	0.587	0.482
LC-2-ad	0.456	0.532	0.465	0.491	0.508	0.504	0.547	0.492	0.453	0.482	0.426	0.432	0.437	0.8	0.503	0.757	0.672
LCLC-97TM1	0.231	0.217	0.202	0.208	0.212	0.188	0.213	0.163	0.19	0.212	0.161	0.158	0.125	0.292	0.407	0.3	0.19
LCLC-103H	0.518	0.479	0.491	0.437	0.428	0.467	0.498	0.469	0.439	0.551	0.655	0.545	0.53	0.656	0.703	0.66	0.663
LK-2	0.681	0.682	0.815	0.65	0.688	0.772	0.851	0.706	0.802	0.761	0.547	0.565	0.544	0.811	0.842	0.818	0.759
LOU-NH91	0.504	0.546	0.505	0.516	0.519	0.583	0.611	0.546	0.535	0.503	0.496	0.523	0.539	0.914	0.845	0.864	0.806
LU99A	0.377	0.465	0.384	0.39	0.427	0.427	0.418	0.375	0.425	0.34	0.317	0.412	0.351	0.253	0.265	0.287	0.267
LXF-289	0.624	0.592	0.631	0.556	0.552	0.554	0.529	0.468	0.468	0.735	0.615	0.537	0.552	1.04	1.01	0.963	1.04
NCI-H23	0.514	0.598	0.495	0.491	0.413	0.494	0.393	0.354	0.314	0.484	0.344	0.352	0.29	0.283	0.312	0.267	0.293
NCI-H322M	0.489	0.487	0.389	0.412	0.485	0.403	0.413	0.459	0.448	0.428	0.415	0.446	0.373	0.662	0.63	0.564	0.599
NCI-H358	0.131	0.114	0.13	0.13	0.131	0.123	0.125	0.127	0.125	0.316	0.302	0.314	0.277	0.463	0.367	0.282	0.207
NCI-H441	0.218	0.27	0.241	0.2	0.18	0.168	0.154	0.157	0.139	0.472	0.363	0.306	0.292	0.613	0.609	0.517	0.444
NCI-H460	0.158	0.294	0.121	0.216	0.144	0.147	0.142	0.0907	0.0517	0.272	0.249	0.207	0.209	0.433	0.384	0.342	0.225
NCI-H522	0.929	0.95	0.925	0.816	0.968	0.98	0.92	0.755	0.793					0.676	0.74	0.542	0.581
NCI-H596										0.372	0.333	0.31	0.296	0.596	0.663	0.572	0.599
NCI-H1299										0.673	0.51	0.389	0.359	1.08	1.08	1.11	0.932
NCI-H1563										0.616	0.587	0.753	0.638				
NCI-H1648		0.283	0.255	0.249	0.225		0.307	0.237	0.296						0.914	0.742	0.493
NCI-H1703										0.231	0.193	0.229	0.283	0.521	0.411	0.39	0.605
NCI-H2342	0.564	0.491	0.56	0.508	0.52	0.476	0.53	0.498	0.482					0.403	0.4	0.43	0.415
SW 900	0.506	0.516	0.497	0.552	0.498	0.597	0.461	0.446	0.495					0.96	0.798	0.788	0.843
